Key:
[1] = test system: surface BCMA on MM1S cells; test: FACS surface BCMA after overnight incubation with anti-BCMA antibodies or DAPT; format: cell-based, human; details: stained with the anti-BCMA antibody
Procedure: (§1) Flow cytometric analysis was utilized to determine the impact of overnight incubation of multiple myeloma cell lines with anti-BCMA antibodies on the level of surface BCMA. […] After 18 hours, wells were washed with cold FACS wash (PBS+1% filtered FBS) and resuspended in 667 nM of the same anti-BCMA antibody in cold stain buffer (Miltenyi 130-091-221) for 30 minutes on ice. After incubation, the cells were washed twice with cold FACS wash (PBS+1% filtered FBS) and bound antibody was detected by incubating with the appropriate anti-human secondary antibody (anti-hlgG or anti-HIS) on ice for an additional 30-45 minutes. After incubation, cells were washed, re-suspended in 200 μL cold PBS containing 1% filtered FBS and analyzed by flow cytometry on a BD FACS Canto II. Fold increase in staining was calculated by dividing the MFI of stained cells previously incubated overnight in BCMA abs or DAPT by the MFI of stained cells that were incubated overnight in media only.

[2] = test system: surface BCMA on Molp8 cells; test: as above; format: cell-based, human
Procedure: as §1

[3] = test system: surface BCMA on NCI-H929 cells; test: as above; format: cell-based, human
Procedure: as §1

[4] = test system: surface BCMA on U266 cells; test: as above; format: cell-based, human
Procedure: as §1

[5] = test system: MC38/BCMA tumors; test: Syngenic MC38/BCMA tumor model in CD3-humanized mice, combination with anti-PD-1 (Example 20); format: in vivo, mouse; details: for Average Tumor Size (mm3) ± SEM on Day 3 / Average Tumor Size (mm3) ± SEM on Day 7 / Average Tumor Size (mm3) ± SEM on Day 11 / Average Tumor Size (mm3) ± SEM on Day 14 / Average Tumor Size (mm3) ± SEM on Day 18 / Average Tumor Size (mm3) ± SEM on Day 21 / Average Tumor Size (mm3) ± SEM on Day 24 / Average Tumor Size (mm3) ± SEM on Day 28: doses on days 3, 7, 11
Procedure: (§2) Implantation and measurement of syngenic tumors: C57BL/6 mice that express human CD3deg in place of murine CD3deg (CD3-humanized mice) were subcutaneously implanted with 1×10^6 MC38 colon carcinoma cells that have been engineered to express full-length human BCMA (MC38/BCMA).
(§3) The mice were administered these Abs twice more on days 7 and 11 for a total of three doses, and tumor growth was assessed throughout the experiment.
(§4) Calculation of syngenic tumor growth and inhibition: In order to determine tumor volume by external caliper, the greatest longitudinal diameter (length in mm) and the greatest transverse diameter (width in mm) were determined. Tumor volumes based on caliper measurements were calculated by the formula: Volume (mm^3)=(length× width^2)/2.

[6] = test system: MC38/BCMA tumors; test: Syngenic MC38/BCMA tumor model in CD3-humanized mice, combination with anti-PD-1, second experiment (Example 21); format: in vivo, mouse
Procedure: as §2, §3, §4

[7] = target: T1, human BCMA-MFC (Homo sapiens, UniProt Q02223); test: SPR (Biacore 4000) binding kinetics at 25° C.
T1 construct: extracellular domain of human BCMA expressed with C-terminal mFc tag (human BCMA-MFC)
Procedure: (§5) The CM5 Biacore sensor surface was derivatized by amine coupling with a monoclonal mouse anti-human Fc antibody (GE, #BR-1008-39) to capture purified anti-BCMA mAbs and anti-BCMA×anti-CD3 bispecific mAbs. All Biacore binding studies were performed in a buffer composed of 0.01M HEPES pH 7.4, 0.15M NaCl, 3 mM EDTA, 0.05% v/v Surfactant P20 (HBS-ET running buffer). […] Antigen samples were then injected over the anti-BCMA and anti-BCMA×anti-CD3 bispecific mAbs captured surfaces at a flow rate of 30 μL/minute. Antibody-reagent association was monitored for 5 minutes while dissociation in HBS-ET running buffer was monitored for 10 minutes. All of the binding kinetics experiments were performed at 25° C. Kinetic association (ka) and dissociation (kd) rate constants were determined by fitting the real-time sensorgrams to a 1:1 binding model using Scrubber 2.0c curve fitting software. Binding dissociation equilibrium constants (KD) and dissociative half-lives (t1/2) were calculated from the kinetic rate constants as: […]

[8] = target: T2, human BCMA-MMH (Homo sapiens, UniProt Q02223); test: SPR (Biacore 4000) binding kinetics at 25° C.
T2 construct: extracellular domain of human BCMA expressed with C-terminal myc-myc-hexahistidine tag (human BCMA-MMH)
Procedure: as §5

[9] = test system: monkey BCMA-MFC; test: SPR (Biacore 4000) binding kinetics at 25° C.
Procedure: as §5

[10] = target: monkey BCMA-MMH; test: SPR (Biacore 4000) binding kinetics at 25° C.; details: for 90 nM mfBCMA.mmh Bind (RU): antibody captured on anti-human Fc
Procedure: as §5

[11] = target: T3, mouse BCMA-MFC (Mus musculus, UniProt O88472); test: SPR (Biacore 4000) binding kinetics at 25° C.
T3 construct: 30 nM BCMA expressed with C-terminal mFc tag (mouse BCMA-MFC)
Procedure: as §5

[12] = bispecific 0.04 mg/kg + second antibody 4 mg/kg
[13] = bispecific 0.24 mg/kg + second antibody 4 mg/kg
[14] = bispecific 0.04 mg/kg + partner antibody 4 mg/kg
[15] = bispecific 0.4 mg/kg + second antibody 4 mg/kg

monkey BCMA-MMH, sequence (as listed by the source): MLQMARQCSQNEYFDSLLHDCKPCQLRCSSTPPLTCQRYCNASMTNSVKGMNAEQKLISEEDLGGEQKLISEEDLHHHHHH
monkey BCMA-MFC, sequence (as listed by the source): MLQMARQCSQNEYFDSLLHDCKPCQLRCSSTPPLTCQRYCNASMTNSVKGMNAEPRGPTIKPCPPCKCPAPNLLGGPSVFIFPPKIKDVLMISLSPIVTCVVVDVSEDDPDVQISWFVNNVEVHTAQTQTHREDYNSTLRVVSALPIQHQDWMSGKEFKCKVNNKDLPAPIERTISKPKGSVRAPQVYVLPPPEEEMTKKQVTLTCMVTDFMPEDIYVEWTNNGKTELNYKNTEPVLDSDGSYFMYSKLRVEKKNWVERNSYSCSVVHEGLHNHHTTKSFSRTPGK
T2 sequence (Q02223 with tags, fused parts or gaps): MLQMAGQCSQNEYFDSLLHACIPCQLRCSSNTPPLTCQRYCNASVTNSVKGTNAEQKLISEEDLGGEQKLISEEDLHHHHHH
T3 sequence (O88472 with tags, fused parts or gaps): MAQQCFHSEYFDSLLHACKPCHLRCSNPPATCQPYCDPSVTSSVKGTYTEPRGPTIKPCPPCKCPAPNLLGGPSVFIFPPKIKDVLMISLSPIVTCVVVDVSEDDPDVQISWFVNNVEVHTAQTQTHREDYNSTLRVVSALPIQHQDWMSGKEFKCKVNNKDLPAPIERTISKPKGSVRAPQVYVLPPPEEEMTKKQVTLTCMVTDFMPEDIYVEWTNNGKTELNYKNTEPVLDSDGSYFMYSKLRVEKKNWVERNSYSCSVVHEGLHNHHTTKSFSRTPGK
T1 sequence (Q02223 with tags, fused parts or gaps): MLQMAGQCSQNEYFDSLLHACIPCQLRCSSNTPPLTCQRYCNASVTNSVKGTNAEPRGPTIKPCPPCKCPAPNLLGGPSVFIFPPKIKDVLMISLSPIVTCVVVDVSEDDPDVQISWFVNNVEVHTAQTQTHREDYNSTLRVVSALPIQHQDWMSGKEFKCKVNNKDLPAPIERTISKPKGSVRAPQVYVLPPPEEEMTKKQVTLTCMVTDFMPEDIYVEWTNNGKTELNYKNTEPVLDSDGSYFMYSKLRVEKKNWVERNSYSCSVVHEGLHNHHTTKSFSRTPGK

Molecule: C[C@H](NC(=O)Cc1cc(F)cc(F)c1)C(=O)N[C@H](C(=O)OC(C)(C)C)c1ccccc1 [DAPT]
- MFI fold change over cells incubated in media only, Average [1]: 11.9 fold
- fold increase of BCMA levels after overnight DAPT, range over detecting antibodies [2]: 2.4-8.6 fold
- fold increase of BCMA levels after overnight DAPT, range over detecting antibodies [3]: 2.3-4 fold
- fold increase of BCMA levels after overnight DAPT, range over detecting antibodies [4]: 5.3-9.0 fold

Molecule: REGN5458 + Isotype: combination of REGN5458 with isotype control Ab (Clone 2A3)
- Average Tumor Size (mm3) ± SEM on Day 3 [5, 12]: 15.62 ± 1.61 mm3
- Average Tumor Size (mm3) ± SEM on Day 3 [5, 13]: 13.13 ± 3.12 mm3
- Average Tumor Size (mm3) ± SEM on Day 7 [5, 12]: 37.98 ± 3.93 mm3
- Average Tumor Size (mm3) ± SEM on Day 7 [5, 13]: 29.27 ± 5.00 mm3
- Average Tumor Size (mm3) ± SEM on Day 11 [5, 12]: 112.53 ± 17.39 mm3
- Average Tumor Size (mm3) ± SEM on Day 11 [5, 13]: 36.63 ± 14.89 mm3
- Average Tumor Size (mm3) ± SEM on Day 14 [5, 12]: 438.16 ± 59.56 mm3
- Average Tumor Size (mm3) ± SEM on Day 14 [5, 13]: 224.33 ± 47.04 mm3
- Average Tumor Size (mm3) ± SEM on Day 18 [5, 12]: 1040.12 ± 61.95 mm3
- Average Tumor Size (mm3) ± SEM on Day 18 [5, 13]: 515.15 ± 115.38 mm3
- Average Tumor Size (mm3) ± SEM on Day 21 [5, 12]: 2133.12 ± 129.26 mm3
- Average Tumor Size (mm3) ± SEM on Day 21 [5, 13]: 1225.47 ± 289.39 mm3
- Average Tumor Size (mm3) ± SEM on Day 24 [5, 12]: 3648.37 ± 536.71 mm3
- Average Tumor Size (mm3) ± SEM on Day 24 [5, 13]: 1493.26 ± 973.01 mm3
- Average Tumor Size (mm3) ± SEM on Day 28 [5, 12]: All Animals Euthanized
- Average Tumor Size (mm3) ± SEM on Day 28 [5, 13]: 1371.17 ± 0.00 mm3
- Number of Mice Tumor-Free at End of Experiment (Day 28) [5, 14]: 0 of 7
- Number of Mice Tumor-Free at End of Experiment (Day 28) ([5]; bispecific 0.24 mg/kg + partner antibody 4 mg/kg): 0 of 6
- Average Tumor Size (mm3) ± SEM on Day 3 [6, 12]: 12.41 ± 2.56 mm3
- Average Tumor Size (mm3) ± SEM on Day 3 [6, 15]: 11.22 ± 0.68 mm3
- Average Tumor Size (mm3) ± SEM on Day 6 [6, 12]: 38.79 ± 3.52 mm3
- Average Tumor Size (mm3) ± SEM on Day 6 [6, 15]: 16.11 ± 1.27 mm3
- Average Tumor Size (mm3) ± SEM on Day 10 [6, 12]: 116.32 ± 19.99 mm3
- Average Tumor Size (mm3) ± SEM on Day 10 [6, 15]: 24.27 ± 6.74 mm3
- Average Tumor Size (mm3) ± SEM on Day 13 [6, 12]: 319.91 ± 53.05 mm3
- Average Tumor Size (mm3) ± SEM on Day 13 [6, 15]: 50.93 ± 20.00 mm3
- Average Tumor Size (mm3) ± SEM on Day 18 [6, 12]: 1314.27 ± 211.22 mm3
- Average Tumor Size (mm3) ± SEM on Day 18 [6, 15]: 248.51 ± 107.21 mm3
- Average Tumor Size (mm3) ± SEM on Day 21 [6, 12]: 2446.35 ± 395.48 mm3
- Average Tumor Size (mm3) ± SEM on Day 21 [6, 15]: 453.43 ± 174.75 mm3
- Average Tumor Size (mm3) ± SEM on Day 25 [6, 12]: 2411.64 ± 451.96 mm3
- Average Tumor Size (mm3) ± SEM on Day 25 [6, 15]: 661.70 ± 331.60 mm3
- Number of Mice Tumor-Free at End of Experiment (Day 25) [6, 14]: 0 of 10
- Number of Mice Tumor-Free at End of Experiment (Day 25) ([6]; bispecific 0.4 mg/kg + partner antibody 4 mg/kg): 2 of 10

B1: REGN4514: anti-BCMA antibody, HCVR/LCVR SEQ ID NOs 34/42 (antibody, V domains shown)
VH: EVQLVESGGGLVQPGRSLRLSCAASGFTFDDYAMHWVRQAPGKGLEWVSGISWNSGNMGYADSVKGRFTISRDNAKNSLFLQMHSLRAEDTAFYYCAKVRLTAFDFWGQGTLVTVSS
VL: DIQMTQSPSSLSASVGDRVTITCRTSQSIGNYLNWFQQKPGKAPKLLIYTASSLQNGVPSRFTGSGSGTDFTLTISSLQPEDFVIYYCQQSFSTPYTFGQGTKLEIK
- ka [7]: 1.07e+06 M⁻¹ s⁻¹
- kd [7]: 4.53e-05 s⁻¹
- ka [8]: 1.06e+06 M⁻¹ s⁻¹
- kd [8]: 0.00285 s⁻¹
- ka [9]: 492000 M⁻¹ s⁻¹
- kd [9]: 0.00724 s⁻¹
- Kd [10]: > 90 nM
- 90 nM mfBCMA.mmh Bind (RU) [10]: 1.1 RU
- ka [11]: 397000 M⁻¹ s⁻¹
- kd [11]: 0.000269 s⁻¹

B2: REGN4515: anti-BCMA antibody, HCVR/LCVR SEQ ID NOs 50/58 (antibody, V domains shown)
VH: QVQLVESGGGLVKPGGSLRLSCAASGFTFSDYYISWIRQAPGKGLEWVSYISSSGSSIKYADSVKGRFTISRDNAKNSLYLQMNSLRAEDTAVYYCAREGGNYGMDVWGQGTTVTVSS
VL: DIQMTQSPSSVSASVGDRVTITCRASQGINNWLVWYQQKPGKAPKLLIYAATSLQSGVPSRFSGSGSGTDFTLTISSLQPEDFATYYCQQANSFPPTFGQGTKLEIK
- ka [7]: 1.41e+06 M⁻¹ s⁻¹
- kd [7]: 8.95e-05 s⁻¹
- ka [8]: 869000 M⁻¹ s⁻¹
- kd [8]: 0.00247 s⁻¹
- ka [9]: 2.13e+06 M⁻¹ s⁻¹
- kd [9]: 0.00716 s⁻¹
- Kd [10]: > 90 nM
- 90 nM mfBCMA.mmh Bind (RU) [10]: 1.9 RU
- ka [11]: 947000 M⁻¹ s⁻¹
- kd [11]: 0.00418 s⁻¹

B3: mAb16711: anti-BCMA antibody, HCVR/LCVR SEQ ID NOs 2/10 (antibody, V domains shown)
VH: QVQLVESGGGVVQPGRSLRLSCAASGFTFSTYGIHWVRQAPGKGLEWVAVILHDGSSNYYAESVKGRFIISRDNSKNTLYLQMNSLRAEDTALYYCTKRYSEAAGPNWFDPWGQGTLVTVSS
VL: DIQMTQSPSSVSASVGDRVTITCRASRGISSWLAWYQQKPGKAPKLLIHAASSLQSGVPSRFSGSGSGTDFTLTISSLQPEDFATYYCQQAISFPFTFGPGTKVDIK
- ka [7]: 1.85e+06 M⁻¹ s⁻¹
- kd [7]: 0.00019 s⁻¹
- ka [8]: 2.01e+06 M⁻¹ s⁻¹
- kd [8]: 0.00347 s⁻¹
- Kd [9]: > 30 nM
- ka [11]: 1.07e+06 M⁻¹ s⁻¹
- kd [11]: 0.0011 s⁻¹

— patent US11919965B2, “Methods of treating multiple myeloma with bispecific anti-BCMA x anti-CD3 antibodies” (Regeneron Pharmaceuticals, Inc., priority 2019, dated 2024)
